# Measurements reported in the kinase profiling compilation of Christmann-Franck et al. (2016).
# Key:
# Test in all cases: KINOMEscan competition binding
# Conditions in all cases: compound 1.0 µM
# [1] = target: EPHA6 (human) (UniProt Q9UF33)
# [2] = target: AURKA (human) (UniProt O14965)
# [3] = target: MLTK (human) (UniProt Q9NYL2)
# [4] = test system: RET (human), P07949 [V804M]
# [5] = test system: PIK3CA (human), P42336 [I800L]
# [6] = target: ZAP70 (human) (UniProt P43403)
# [7] = target: PHKG1 (human) (UniProt Q16816)
# [8] = target: EPHB1 (human) (UniProt P54762)
# [9] = test system: EGFR (human), P00533 [752-759 del]
# [10] = target: CDK14 (human) (UniProt O94921)
# [11] = target: TYK2 JH2 pseudokinase (human) (UniProt P29597)
# [12] = target: CDC42BPB (human) (UniProt Q9Y5S2)
# [13] = target: CDKL1 (human) (UniProt Q00532)
# [14] = test system: CPK1 (P.falciparum)
# [15] = target: NEK2 (human) (UniProt P51955)
# [16] = target: ROS1 (human) (UniProt P08922)
# [17] = target: MERTK (human) (UniProt Q12866)
# [18] = target: TEC (human) (UniProt P42680)
# [19] = target: PTK2B (human) (UniProt Q14289)
# [20] = target: FYN (human) (UniProt P06241)
# [21] = test system: ABL1 (human), P00519 [Y253F]
# [22] = target: VRK2 (human) (UniProt Q86Y07)
# [23] = target: PRPF4B (human) (UniProt Q13523)
# [24] = target: STK16 (human) (UniProt O75716)
# [25] = target: EPHB3 (human) (UniProt P54753)
# [26] = target: FRK (human) (UniProt P42685)
# [27] = target: EPHB2 (human) (UniProt P29323)
# [28] = target: MAPK4 (human) (UniProt P31152)
# [29] = target: RPS6KA6 KD2 (human) (UniProt Q9UK32)
# [30] = target: MKNK2 (human) (UniProt Q9HBH9)
# [31] = target: ABL2 (human) (UniProt P42684)
# [32] = target: LIMK2 (human) (UniProt P53671)
# [33] = target: NEK7 (human) (UniProt Q8TDX7)
# [34] = target: STK32C (human) (UniProt Q86UX6)
# [35] = target: CAMK2A (human) (UniProt Q9UQM7)
# [36] = target: ERBB3 (human) (UniProt P21860)
# [37] = target: BRSK1 (human) (UniProt Q8TDC3)
# [38] = target: MAK (human) (UniProt P20794)
# [39] = target: STK39 (human) (UniProt Q9UEW8)
# Chain of RPS6KA6 KD2 (human) (Q9UK32 whole entry, looked up): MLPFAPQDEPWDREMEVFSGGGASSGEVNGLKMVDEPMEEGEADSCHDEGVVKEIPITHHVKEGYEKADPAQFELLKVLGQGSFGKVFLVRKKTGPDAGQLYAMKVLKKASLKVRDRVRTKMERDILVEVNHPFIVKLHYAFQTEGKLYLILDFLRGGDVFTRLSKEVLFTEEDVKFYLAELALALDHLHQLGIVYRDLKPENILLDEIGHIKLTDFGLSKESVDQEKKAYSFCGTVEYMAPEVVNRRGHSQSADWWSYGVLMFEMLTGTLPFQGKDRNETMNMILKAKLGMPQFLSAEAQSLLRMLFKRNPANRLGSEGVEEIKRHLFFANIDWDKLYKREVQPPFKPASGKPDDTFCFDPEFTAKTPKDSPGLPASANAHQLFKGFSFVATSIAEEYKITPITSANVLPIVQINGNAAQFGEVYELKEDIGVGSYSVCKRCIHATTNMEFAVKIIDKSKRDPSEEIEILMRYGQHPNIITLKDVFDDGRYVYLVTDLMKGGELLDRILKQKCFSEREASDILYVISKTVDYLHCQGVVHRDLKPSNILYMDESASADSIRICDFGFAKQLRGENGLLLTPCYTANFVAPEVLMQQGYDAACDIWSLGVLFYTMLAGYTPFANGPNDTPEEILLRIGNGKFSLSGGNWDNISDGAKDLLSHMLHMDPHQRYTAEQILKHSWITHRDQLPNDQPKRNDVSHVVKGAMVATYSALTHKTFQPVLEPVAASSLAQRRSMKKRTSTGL
# Chain of NEK7 (human) (Q8TDX7 whole entry, looked up): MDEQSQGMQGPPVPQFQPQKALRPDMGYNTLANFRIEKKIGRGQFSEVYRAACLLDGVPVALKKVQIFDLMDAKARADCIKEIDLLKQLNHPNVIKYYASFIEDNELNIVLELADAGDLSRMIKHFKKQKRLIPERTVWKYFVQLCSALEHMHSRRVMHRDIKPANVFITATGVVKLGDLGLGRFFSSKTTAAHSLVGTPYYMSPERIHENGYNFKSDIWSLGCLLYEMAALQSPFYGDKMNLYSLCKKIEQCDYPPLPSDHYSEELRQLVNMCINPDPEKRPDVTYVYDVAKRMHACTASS
# Chain of EPHB3 (human) (P54753 whole entry, looked up): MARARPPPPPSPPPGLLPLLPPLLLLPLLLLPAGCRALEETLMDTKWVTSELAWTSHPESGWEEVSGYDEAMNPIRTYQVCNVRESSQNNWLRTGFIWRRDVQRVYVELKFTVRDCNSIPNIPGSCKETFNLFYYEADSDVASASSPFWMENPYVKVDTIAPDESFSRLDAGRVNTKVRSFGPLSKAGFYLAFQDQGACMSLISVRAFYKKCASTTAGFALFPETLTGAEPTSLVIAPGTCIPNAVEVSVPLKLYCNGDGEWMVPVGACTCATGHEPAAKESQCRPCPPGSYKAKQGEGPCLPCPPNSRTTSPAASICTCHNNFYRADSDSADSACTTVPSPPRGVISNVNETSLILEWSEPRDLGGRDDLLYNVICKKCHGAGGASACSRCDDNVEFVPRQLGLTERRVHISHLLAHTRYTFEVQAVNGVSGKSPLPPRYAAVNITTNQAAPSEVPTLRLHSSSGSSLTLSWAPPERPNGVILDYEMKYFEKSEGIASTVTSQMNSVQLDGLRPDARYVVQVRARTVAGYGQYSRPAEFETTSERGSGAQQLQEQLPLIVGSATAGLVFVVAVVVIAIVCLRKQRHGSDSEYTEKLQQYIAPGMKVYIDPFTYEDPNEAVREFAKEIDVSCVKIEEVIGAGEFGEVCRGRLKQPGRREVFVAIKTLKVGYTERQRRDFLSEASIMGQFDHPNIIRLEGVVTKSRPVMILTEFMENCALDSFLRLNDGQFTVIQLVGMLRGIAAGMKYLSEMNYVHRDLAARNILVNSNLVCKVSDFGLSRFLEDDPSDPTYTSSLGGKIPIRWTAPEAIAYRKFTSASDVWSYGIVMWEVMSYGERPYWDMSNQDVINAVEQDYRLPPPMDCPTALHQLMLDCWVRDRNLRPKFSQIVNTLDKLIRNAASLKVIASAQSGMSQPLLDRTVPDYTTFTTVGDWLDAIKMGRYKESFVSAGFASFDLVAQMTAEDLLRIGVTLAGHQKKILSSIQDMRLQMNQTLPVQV
# Chain of TEC (human) (P42680 whole entry, looked up): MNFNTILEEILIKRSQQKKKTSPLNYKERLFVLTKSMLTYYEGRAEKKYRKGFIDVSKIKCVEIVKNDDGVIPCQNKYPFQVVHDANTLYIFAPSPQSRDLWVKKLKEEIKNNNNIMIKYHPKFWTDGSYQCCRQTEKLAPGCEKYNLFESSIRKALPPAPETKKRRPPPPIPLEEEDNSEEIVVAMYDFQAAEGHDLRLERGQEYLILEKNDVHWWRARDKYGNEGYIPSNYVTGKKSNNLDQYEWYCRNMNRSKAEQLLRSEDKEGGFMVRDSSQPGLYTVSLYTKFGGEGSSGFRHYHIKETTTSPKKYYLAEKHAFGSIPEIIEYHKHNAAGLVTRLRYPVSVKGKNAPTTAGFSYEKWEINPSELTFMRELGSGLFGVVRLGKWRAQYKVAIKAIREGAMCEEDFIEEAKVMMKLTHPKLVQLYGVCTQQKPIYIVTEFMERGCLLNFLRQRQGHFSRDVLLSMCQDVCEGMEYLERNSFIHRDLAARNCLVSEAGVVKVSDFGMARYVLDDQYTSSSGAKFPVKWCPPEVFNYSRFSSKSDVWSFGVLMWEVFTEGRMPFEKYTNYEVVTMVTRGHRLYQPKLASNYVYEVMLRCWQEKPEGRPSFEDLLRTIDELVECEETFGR
# Chain of MERTK (human) (Q12866 whole entry, looked up): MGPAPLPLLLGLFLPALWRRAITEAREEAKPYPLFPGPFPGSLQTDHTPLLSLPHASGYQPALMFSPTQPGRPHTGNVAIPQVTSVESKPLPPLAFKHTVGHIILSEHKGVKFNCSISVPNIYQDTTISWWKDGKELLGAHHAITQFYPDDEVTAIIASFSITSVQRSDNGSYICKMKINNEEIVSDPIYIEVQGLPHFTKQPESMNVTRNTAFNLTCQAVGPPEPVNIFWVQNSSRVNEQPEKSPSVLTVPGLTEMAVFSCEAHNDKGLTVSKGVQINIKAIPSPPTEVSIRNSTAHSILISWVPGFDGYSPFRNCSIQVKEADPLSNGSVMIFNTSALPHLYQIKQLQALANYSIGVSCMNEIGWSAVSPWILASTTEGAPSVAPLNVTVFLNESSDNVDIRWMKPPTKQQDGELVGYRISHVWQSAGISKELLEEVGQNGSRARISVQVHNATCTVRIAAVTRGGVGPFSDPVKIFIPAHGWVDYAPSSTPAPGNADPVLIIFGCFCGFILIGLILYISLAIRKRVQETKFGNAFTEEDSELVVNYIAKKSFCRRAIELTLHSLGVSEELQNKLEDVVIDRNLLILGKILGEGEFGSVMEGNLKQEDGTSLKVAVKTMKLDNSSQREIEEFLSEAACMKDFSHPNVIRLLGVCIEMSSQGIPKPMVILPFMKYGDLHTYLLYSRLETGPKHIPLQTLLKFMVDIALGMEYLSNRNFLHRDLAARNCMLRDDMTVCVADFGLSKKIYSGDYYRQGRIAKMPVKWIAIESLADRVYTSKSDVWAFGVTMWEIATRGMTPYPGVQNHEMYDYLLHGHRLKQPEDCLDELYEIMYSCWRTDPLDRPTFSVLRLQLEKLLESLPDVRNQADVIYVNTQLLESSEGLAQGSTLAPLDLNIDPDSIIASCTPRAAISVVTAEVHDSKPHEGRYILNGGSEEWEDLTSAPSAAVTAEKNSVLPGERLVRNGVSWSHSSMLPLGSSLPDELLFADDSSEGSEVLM
# Chain of CAMK2A (human) (Q9UQM7 whole entry, looked up): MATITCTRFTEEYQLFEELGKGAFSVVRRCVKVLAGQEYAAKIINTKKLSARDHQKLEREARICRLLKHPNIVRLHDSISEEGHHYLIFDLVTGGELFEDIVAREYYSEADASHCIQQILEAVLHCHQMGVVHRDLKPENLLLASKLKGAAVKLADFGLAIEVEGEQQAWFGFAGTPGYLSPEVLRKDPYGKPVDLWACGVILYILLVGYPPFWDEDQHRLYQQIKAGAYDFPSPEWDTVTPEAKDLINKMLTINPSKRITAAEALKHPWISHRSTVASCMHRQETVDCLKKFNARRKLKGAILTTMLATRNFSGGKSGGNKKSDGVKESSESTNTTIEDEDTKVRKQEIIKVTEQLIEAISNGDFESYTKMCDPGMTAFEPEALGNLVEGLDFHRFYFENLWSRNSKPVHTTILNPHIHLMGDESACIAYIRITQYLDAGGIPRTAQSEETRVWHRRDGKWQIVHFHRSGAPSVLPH
# Chain of ZAP70 (human) (P43403 whole entry, looked up): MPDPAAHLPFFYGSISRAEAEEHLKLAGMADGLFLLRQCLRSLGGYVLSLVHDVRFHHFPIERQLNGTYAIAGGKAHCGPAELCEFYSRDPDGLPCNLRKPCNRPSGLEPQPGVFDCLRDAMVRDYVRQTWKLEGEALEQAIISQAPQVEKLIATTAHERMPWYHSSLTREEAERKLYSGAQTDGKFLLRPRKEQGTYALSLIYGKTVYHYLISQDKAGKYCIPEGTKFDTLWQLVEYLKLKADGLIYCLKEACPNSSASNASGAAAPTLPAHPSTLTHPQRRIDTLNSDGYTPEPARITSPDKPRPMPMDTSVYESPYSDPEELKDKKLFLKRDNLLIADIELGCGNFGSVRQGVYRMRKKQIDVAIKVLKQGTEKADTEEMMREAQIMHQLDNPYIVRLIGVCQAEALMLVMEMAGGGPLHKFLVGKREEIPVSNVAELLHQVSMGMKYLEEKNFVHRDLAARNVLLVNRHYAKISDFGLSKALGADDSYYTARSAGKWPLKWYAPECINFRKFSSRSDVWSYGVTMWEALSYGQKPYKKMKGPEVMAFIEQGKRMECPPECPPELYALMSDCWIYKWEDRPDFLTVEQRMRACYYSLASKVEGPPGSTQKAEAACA
smiles,measurement,setting,value
CNc1nc(Nc2ccc(C(=O)N3CCOCC3)cc2OC)ncc1Cl,"kinase still bound, per cent of control",[1],100%
same,"kinase still bound, per cent of control",[2],96%
same,"kinase still bound, per cent of control",[3],100%
same,"kinase still bound, per cent of control",[4],92%
same,"kinase still bound, per cent of control",[5],96%
same,"kinase still bound, per cent of control",[6],92%
same,"kinase still bound, per cent of control",[7],76%
same,"kinase still bound, per cent of control",[8],100%
same,"kinase still bound, per cent of control",[9],100%
same,residual activity,[10],100%
same,"kinase still bound, per cent of control",[11],100%
same,"kinase still bound, per cent of control",[12],100%
same,residual activity,[13],100%
same,"kinase still bound, per cent of control",[14],78%
same,"kinase still bound, per cent of control",[15],78%
same,"kinase still bound, per cent of control",[16],100%
same,"kinase still bound, per cent of control",[17],100%
same,"kinase still bound, per cent of control",[18],100%
same,"kinase still bound, per cent of control",[19],82%
same,"kinase still bound, per cent of control",[20],56%
same,"kinase still bound, per cent of control",[21],69%
same,"kinase still bound, per cent of control",[22],95%
same,"kinase still bound, per cent of control",[23],98%
same,"kinase still bound, per cent of control",[24],100%
same,"kinase still bound, per cent of control",[25],100%
same,"kinase still bound, per cent of control",[26],63%
same,"kinase still bound, per cent of control",[27],100%
same,"kinase still bound, per cent of control",[28],100%
same,"kinase still bound, per cent of control",[29],89%
same,"kinase still bound, per cent of control",[30],14%
same,"kinase still bound, per cent of control",[31],100%
same,"kinase still bound, per cent of control",[32],100%
same,"kinase still bound, per cent of control",[33],88%
same,"kinase still bound, per cent of control",[34],100%
same,"kinase still bound, per cent of control",[35],76%
same,"kinase still bound, per cent of control",[36],100%
same,"kinase still bound, per cent of control",[37],96%
same,"kinase still bound, per cent of control",[38],100%
same,residual activity,[39],100%
